Reference: the supplement of paper PMC6723410

System: GUMC-403
Assay: viability at highest tested concentration (max response) relative to DMSO (% of DMSO control); higher = less cytotoxic
Conditions: library / dose series: MIPE library, 11-point 1:3 dilution, 48 h
Method in brief: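 Patient-derived GUMC-403 papilloma cells grown by conditional reprogramming were plated at 700/well in 5 μL F + Y medium in 1536-well plates and incubated overnight at 37 °C. They then received 23 nL of MIPE 4.0 compounds by pin tool (11-point 1:3 series) for 48 h. CellTiter-Glo luminescence was read on a ViewLux and normalised with DMSO wells as 100% and empty wells as 0%. The value is viability at the highest tested concentration relative to DMSO control.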

SMILES	viability (top concentration 46.1 µM)	also measured
Cc1csc(NC(=O)c2sc3nc4c(c(C(F)(F)F)c3c2N)CCC4)n1	94.1	–
N#Cc1ccc(COC[C@H]2O[C@@H](n3c(NCc4ccc(Cl)c(Cl)c4)nc4c(N)ncnc43)[C@H](O)[C@@H]2O)cc1	89	–
CCN(c1ccccc1)c1cc(NC)[n+](C)c(C)n1	115	–
COc1cc(-c2nn(C3CCC(N4CCN(C(C)=O)CC4)CC3)c3ncnc(N)c23)ccc1NC(=O)c1cc2ccccc2n1C (stereo not drawn)	78.2	–
C[C@H]1[C@@H](C(=O)C[C@H]2O[C@@H]3O[C@]4(C)CC[C@H]5[C@H](C)CC[C@@H]([C@H]2C)[C@@]35OO4)O[C@@H]2O[C@]3(C)CC[C@H]4[C@H](C)CC[C@@H]1[C@@]24OO3	121	–
COc1cc2nc(N(C)CCCNC(=O)C3CCCO3)nc(N)c2cc1OC (stereo not drawn)	116	–
Cc1ccc(O)c(C(CCN(C(C)C)C(C)C)c2ccccc2)c1.Cl (stereo not drawn)	125	–
CN[C@@H](C)[C@H]1[C@H](O)C[C@@]2(C)[C@@H]3CC[C@H]4C(C)(C)[C@@H](NC)CC[C@@]45C[C@@]35CC[C@]12C	96	–
FC1=CC=C(SC/2=N/N3\C=N/C(=O)/C(=C3/C=C2)C4=C(Cl)C=CC=C4Cl)C(=C1)F	108	–
O=C1\C=C/C=C2/[C@H]3CNC[C@H](C3)CN12	136	–
NNc1nncc2ccccc12	117	–
CCCCCC[C@H]1C(=O)O[C@H](C)[C@H](NC(=O)c2cccc(NC=O)c2O)C(=O)O[C@@H](C)[C@@H]1OC(=O)CC(C)C	97.1	–
C[C@@H]1CCO[C@H]2CN\3/C=C(/C(=O)NCC4=C(F)C=C(F)C=C4)C(=O)\C(=C3C(=O)N12)O	110	–
OCC(O)C(O)C(O)CO (stereo not drawn)	97.1	–
Nc1ccccc1NC(=O)c1ccc(CNC(=O)OCc2cccnc2)cc1	110	–
FC1=CC=C(CN2\C=C/C=C(/C(=O)N[C@@H](COC3=CC4=C(NC(=O)N4)C=C3)C5=CC=CC=C5)C2=O)C=C1F	103	–
O=C(NCCCCN1CCOCC1)c1cc2ccccc2o1	106	–
COc1ccc(Nc2nccc(NCCO)n2)cc1	99.9	–
COc1cccc2c1[C@]13CCN(CC4CC4)[C@H](C2)[C@]1(OC)CCC(=O)C3	107	–
CN(C)c1ccc(Nc2nc(N)n(C(=O)c3c(F)cccc3F)n2)cc1	103	–
NCC1(CC(=O)O)CCCCC1	115	–
C#C[C@]1(O)CC[C@H]2[C@@H]3CCc4cc(OC)ccc4[C@H]3CC[C@@]21C	88.2	–
COc1cc2c(cc1OC)C1CC(=O)C(CC(C)C)CN1CC2 (stereo not drawn)	110	–
CC(=O)N(C)C1(c2ccccc2)CCN(CCC[C@]2(c3ccc(Cl)c(Cl)c3)CCCN(C(=O)c3ccccc3)C2)CC1	96.7	–
CCOC(=O)N[C@@H]1CC[C@@H]2[C@@H](C1)C[C@H]1C(=O)O[C@H](C)[C@H]1[C@H]2/C=C/c1ccc(-c2cccc(F)c2)cn1	123	–
C1CCN2C[C@H]3C[C@H](\C=C/4CCCN[C@@H]34)[C@H]2C1	120	–

SMILES	viability (top concentration 46.1 µM)	also measured
CCn1c(=O)c2c(nc(/C=C/c3ccc(OC)c(OC)c3)n2C)n(CC)c1=O	134	–
OC[C@@H](O)[C@@H](O)[C@H](O)[C@@H](O)CO	128	–
Nc1nc(OCc2ccccc2)c2nc[nH]c2n1	111	–
FC(F)(F)c1ccc(Nc2nc3cc(Oc4ccnc(-c5ncc(C(F)(F)F)[nH]5)c4)ccc3[nH]2)cc1	97.7	–
NC[C@H](O)c1ccc(O)c(O)c1	113	–
CN1c2ccccc2C(=O)N2CCc3c([nH]c4ccccc34)C21 (stereo not drawn)	102	–
CN1CCc2c(c3ccccc3n2Cc2ccc(C(=O)NO)cc2)C1	107	–
O=[S+]([O-])(CC1CS1)c1ccc(Oc2ccccc2)cc1 (stereo not drawn)	122	–
CN1C2CCC1CC(OC(=O)C(CO)c1ccccc1)C2 (stereo not drawn)	109	–
COc1nc(N)nc2c1ncn2[C@@H]1O[C@H](CO)[C@@H](O)[C@@H]1O	120	–
CCc1nc(-c2cccc(C)c2)c(-c2ccnc(NC(=O)c3ccccc3)c2)s1	108	–
C/C=C1\C2C=C(C)CC1(N)c1ccc(=O)[nH]c1C2 (stereo not drawn)	118	–
Nc1ncnc2c1ncn2[C@@H]1O[C@H](CO)C[C@H]1O	97.3	–
C=CC(=O)Nc1cccc(Sc2nc(Nc3ccc(N4CCN(C)CC4)cc3)ncc2Cl)c1	70.3	–
CO[C@H]1C[C@@H]2CC[C@@H](C)[C@@](O)(O2)C(=O)C(=O)N2CCCC[C@H]2C(=O)O[C@H]([C@H](C)C[C@@H]2CC[C@@H](OC(=O)C(C)(CO)CO)[C@H](OC)C2)CC(=O)[C@H](C)/C=C(\C)[C@@H](O)[C@@H](OC)C(=O)[C@H](C)C[C@H](C)/C=C/C=C/C=C/1C	110	–
C[N]1C2=C(SC(=C2)[S+](C)[O-])C\3=C1C(=O)N(CC4=CC(=CC=C4)N)\N=C3 (stereo not drawn)	106	–
CC(C)(C)c1nc(-c2cccc(N[S+](=O)([O-])c3c(F)cccc3F)c2F)c(-c2ccnc(N)n2)s1	109	–
CC(C)(O)CC[C@@H](O)[C@](C)(O)[C@H]1CC[C@@]2(O)C/3=C/C(=O)[C@@H]4C[C@@H](O)[C@@H](O)C[C@]4(C)[C@H]3CC[C@]12C	111	–
COc1ccc(N(C(=O)Oc2c(C)cccc2C)c2ccnc(Nc3ccc(N4CCN(C)CC4)cc3)n2)c(OC)c1	83.2	–
CN(C)CCCC1(c2ccc(F)cc2)OCc2cc(C#N)ccc21 (stereo not drawn)	98.5	–
CCNC(=O)c1cc2c(-c3cc(OCCN4CCCC4)c(Cl)cc3Cl)nc(N)nc2s1	58.2	–
O=C(CO)N1CCC(c2n[nH]c(-c3ccc(Cl)cc3)c2-c2ccncn2)CC1	109	–
O=C([O-])[C@H](CC(=O)N1C[C@H]2CCCC[C@H]2C1)Cc1ccccc1	144	–
Clc1ccc(C(c2ccccc2Cl)C(Cl)Cl)cc1 (stereo not drawn)	100	–
CCOC(=O)c1c(/C(C#N)=C\N)c2ccc(Cl)c(Cl)c2n1C	92.2	–
CC(C)Oc1ccc(C(=O)N[C@H](CNC(=O)CN(C)C)Cc2ccc(-c3cn4cccc([C@H](C)O)c4n3)cc2)cc1Cl	98.1	–

SMILES	viability (top concentration 46.1 µM)	also measured
C[C@]12CC[C@H]3[C@@H](C\C=C/4C[C@@H](O)CC[C@]34C)[C@@H]1CCC2=O	101	–
CC[C@@]1(O)C[C@H](O[C@H]2C[C@H](N(C)C)[C@H](O[C@H]3C[C@H](O)[C@H](O[C@H]4CCC(=O)[C@H](C)O4)[C@H](C)O3)[C@H](C)O2)c2c(cc3c(c2O)C(=O)c2c(O)cccc2C3=O)[C@H]1C(=O)OC	83.4	–
COc1cccc(OC)c1-c1cc(C(=O)NC2(C(=O)O)C3CC4CC(C3)CC2C4)nn1-c1ccnc2cc(Cl)ccc12 (stereo not drawn)	124	–
CC(=O)O[C@H]1C[C@@H]2CC[C@@H]3[C@H](CC[C@@]4(C)[C@H]3C[C@H]([N+]3(C)CCCCC3)[C@@H]4OC(C)=O)[C@@]2(C)C[C@@H]1N1CCCCC1	130	–
CCCc1cc(C(N)=S)ccn1	112	–
CN(C)Cc1c(C(=O)NCCOc2ccc(C(=O)NO)cc2)oc2ccccc12	82.5	–
CCC(=O)O[C@@]1([C@@H](C)C[C@H]2[C@@H]3CCC/4=C/C(=O)/C=C\[C@]4(C)[C@@]3(F)[C@@H](O)C[C@]12C)C(=O)CCl	148	–
CC[C@H](/C=C/[C@@H](C)[C@H]1CC[C@H]2[C@@H]3CC=C4C[C@@H](O)CC[C@]4(C)[C@H]3CC[C@]12C)C(C)C	–	viability (top concentration 23 µM): 104
Cc1cc(OCCC[S+](C)(=O)[O-])cc(C)c1-c1cccc(COc2ccc3c(c2)OC[C@H]3CC(=O)O)c1	112	–
CC(C)(Oc1ccc(C2CC2(Cl)Cl)cc1)C(=O)O (stereo not drawn)	–	viability (top concentration 92.2 µM): 101
CCC(=O)OCC(=O)[C@@]1(OC(=O)CC)[C@@H](C)C[C@H]2[C@@H]3CCC4=CC(=O)C=C[C@]4(C)[C@@]3(F)[C@@H](O)C[C@@]21C	120	–
O=C(NCC1CCCCN1)c1cc(OCC(F)(F)F)ccc1OCC(F)(F)F (stereo not drawn)	87.2	–
C\C1=C(\C=C(C#N)/C(=O)N1)C2=C[N]3C=CN=C3C=C2	96	–
O=C(N[C@@H](c1ccccc1)[C@@H]1CCCCN1)c1cccc(C(F)(F)F)c1Cl	99	–
CN(Cc1cc(Br)cc(Br)c1N)C1CCCCC1	122	–
C/C(O)=C(\C#N)C(=O)Nc1ccc(C(F)(F)F)cc1	94.3	–
Cc1cccc(-c2[nH]c(C(C)(C)C)nc2-c2ccc3c(c2)OCO3)n1	118	–
CC(C)[C@H](CO)Nc1nc(Nc2cccc(Cl)c2)c2ncn(C(C)C)c2n1	21.1	–
C[C@@H]1CC[C@@]2(OC1)O[C@H]3C[C@H]4[C@@H]5C/C=C6/C[C@H](CC[C@]6(C)[C@H]5CC[C@]4(C)[C@H]3[C@@H]2C)O[C@@H]7O[C@H](CO)[C@@H](O[C@@H]8O[C@@H](C)[C@H](O)[C@@H](O)[C@H]8O)[C@H](O)[C@H]7O[C@@H]9O[C@@H](C)[C@H](O)[C@@H](O)[C@H]9O	112	–
Cc1n[nH]c(C)c1Cc1sc2c(c1C(=O)N1C[C@H](O)CO1)c(=O)n(C)c(=O)n2CC(C)C	119	–
CC(=O)OCC(=O)[C@@]1(O)CC[C@H]2[C@@H]3CCC/4=C/C(=O)CC[C@]4(C)[C@H]3C(=O)C[C@]12C	119	–
COc1cc2nc(-c3cc(F)ccc3O)nc(N[C@@H]3CNC[C@H]3C(C)(C)O)c2cc1OC	59.9	–
CN(C)C(=O)[C@H](O)[C@H](Cc1ccccc1)NC(=O)c1cc2cc(Cl)ccc2[nH]1	114	–
CCN(CC)CCOC1=CC=C(NC2=NC=C3\C=C(/C(=O)N(C)C3=N2)C4=C(Cl)C=CC=C4Cl)C=C1	75.4	–
CCCOc1ccc2[nH]c(NC(=O)OC)nc2c1	108	–
O=C(Nc1cc(Cl)cc2c1[nH]c1cnccc12)c1cccnc1	56.8	–
